According to US7582418B2, “Antimicrobial chelates” (Albion Laboratories, Inc., priority 2004, dated 2009):

Columns and labels:
Assay type in all cases: cell-based
[1] = test system: Staphlococcus aureus; experiment: Turbidity assay (TSB tubes, plated out); set-up: key: no-growth (NG) which corresponds with excellent inhibitory activity; partial growth (PG) which corresponds with good inhibitory activity; complete growth (CG) which corresponds with little or no inhibitory activity; conditions: TSB tube with 1.0 mL sample solution (100 mg/mL) and 50 μL 24-hour culture; after 24 hours plated, incubated 24 hours
Protocol: (§1) In the second method, turbidity assays were conducted. Tryptic soy broth (TSB) tubes were inoculated with 1.0 mL of sample solutions (100 mg/mL) and 50 μL of 24-hour cultures of each microbe. In the case of C. albicans, 100 μL of 24-hour culture was used. After 24 hours, an aliquot from each tube was plated out onto nutrient media and incubated for 24 hours. Following incubation, colonies on each plate were observed and characterized as one of three categories: no-growth (NG) which corresponds with excellent inhibitory activity, partial growth (PG) which corresponds with good inhibitory activity, complete growth (CG) which corresponds with little or no inhibitory activity.
(§2) S. pyongenes, could not be grown in the solution, so the turbidity assay was not conducted for that microorganism. When the data from both zone inhibition (Table 2) and turbidity (Table 3) assays are compared, an indication of the inhibition activity may be evident.

[2] = test system: Candida albicans; experiment: Turbidity assay (TSB tubes, plated out); set-up: key: no-growth (NG) which corresponds with excellent inhibitory activity; partial growth (PG) which corresponds with good inhibitory activity; complete growth (CG) which corresponds with little or no inhibitory activity; conditions: TSB tube with 1.0 mL sample solution (100 mg/mL) and 100 μL 24-hour culture; after 24 hours plated, incubated 24 hours
Protocol: as §1, §2

[3] = test system: Eschrichia coli; experiment: Turbidity assay (TSB tubes, plated out); set-up: key: no-growth (NG) which corresponds with excellent inhibitory activity; partial growth (PG) which corresponds with good inhibitory activity; complete growth (CG) which corresponds with little or no inhibitory activity; conditions: TSB tube with 1.0 mL sample solution (100 mg/mL) and 50 μL 24-hour culture; after 24 hours plated, incubated 24 hours
Protocol: as §1, §2

[4] = test system: Staphlococcus aureus; experiment: Zone inhibition assay (filter paper disc area diffusion); conditions: distance from edge of disc to bacterial growth; discs saturated with 100 mg/ml solution (antibiotic control discs 5-30 μg); 24 hours at 37° C.
Protocol: (§3) Two methods were used to examine whether an inhibitory effect from the zinc containing compounds was observable and if there was an inhibitory effect, whether the effect was bactericidal (bacteria-killing) or bacteriostatic (bacterial-inhibiting) in nature. In the first method, two Gram-positive bacteria strains (Staphlococcus aureus, Streptococcus pyogenes), two Gram-negative bacteria strains (Salmonella typhimerium, Eschrichia coli), and one common yeast strain (Candida albicans) were grown nutrient agar plates, except in the case of S. pyogenes which was grown on blood agar plates.
(§4) Zone inhibition assays were conducted with eighteen different samples in accordance with the methodology described by Maruzella, J. C. and Henry, P. A., J. Am. Pharm. Assoc. 47:894 (1958) for filter paper disc area diffusion. Sample solutions were prepared to approximate 100 mg/mL concentrations.
(§5) Organisms were grown for 24 hours at 37° C. on blood agar plates with the exception of Candida albicans which was grown in a standard methods agar (SMA) medium. Solutions of each sample were prepared using sterile DD water at a concentration of 100 mg/ml. Paper discs were saturated with solution from each sample and dried aseptically. […] Following drying of solution derived discs, all discs were placed on agar plates with each of the five different microorganisms.

[5] = test system: Candida albicans; experiment: as above; conditions: distance from edge of disc to growth; discs saturated with 100 mg/ml solution (antibiotic control discs 5-30 μg); 24 hours at 37° C.
Protocol: as §3, §4, §5

[6] = test system: Salmonella typhimerium; experiment: as above; conditions: distance from edge of disc to bacterial growth; discs saturated with 100 mg/ml solution (antibiotic control discs 5-30 μg); 24 hours at 37° C.
Protocol: as §3, §4, §5

[7] = test system: Eschrichia coli; experiment: as above; conditions: distance from edge of disc to bacterial growth; discs saturated with 100 mg/ml solution (antibiotic control discs 5-30 μg); 24 hours at 37° C.
Protocol: as §3, §4, §5

[8] = test system: Streptococcus pyogenes; experiment: as above; conditions: distance from edge of disc to bacterial growth; blood agar; discs saturated with 100 mg/ml solution (antibiotic control discs 5-30 μg); 24 hours at 37° C.
Protocol: as §3, §4, §5

| Structure (SMILES) | colony growth category, Staphlococcus aureus [1] | colony growth category, Candida albicans [2] | colony growth category, Eschrichia coli [3] | inhibitory zone, Staphlococcus aureus [4] | inhibitory zone, Candida albicans [5] | inhibitory zone, Salmonella typhimerium [6] | inhibitory zone, Eschrichia coli [7] | inhibitory zone, Streptococcus pyogenes [8] |
| --- | --- | --- | --- | --- | --- | --- | --- | --- |
| O=S(=O)([O-])[O-].[Zn+2] [Sample 4, Zinc Sulfate] | CG | CG | CG | 3.7 millimeters | 2 millimeters | 3 millimeters | 3.5 millimeters | 2 millimeters |
| CC(=O)[O-].[Na+] [Sample 15, Sodium Acetate] | NG | CG | NG | no activity | no activity | no activity | no activity | no activity |
